Here are results for six compounds from patent EP1695711A2, “Parenteral formulations comprising boronic acid species for selective thrombin inhibition” (TRIGEN LIMITED, priority 2002, dated 2004).

Structures can show the parent of a compound that is named as a salt. Where two headings read alike, the source gives them in different places.

In one data set the target is T1, thrombin (Homo sapiens, UniProt P00734).
T1 construct: purchased HTI, via Cambridge Bioscience
Description: Thrombin amidolytic assay (S2238, Vmax). The format is biochemical. The following applies: TRI 50b as external control; Fig. 1. The method, then: Chromogenic substrate S2238 dissolved to 4mM (25mg + 10ml) in water. Diluted to 50uM with assay buffer for use in assay at 5µM. (S2238 is H-D-Phe-Pip-Arg-pNA).
Thrombin obtained from HTI, via Cambridge Bioscience, and aliquoted at 1mg/ml with assay buffer. Dilute to 100ng/ml with assay buffer and then a further 1 in 3 for use in the assay.
• 110µl assay buffer • 50ul 5µg/ml thrombin • 20µl vehicle or compound solution • 5 min at 37°C • 20µl 50µM S2238

Data set [1] can be described thus: Stability: HPLC-PDA assay before and after drying. It is filed as physicochemical. The settings on record: for Amount: 5 mg in 5 mL. Here is the method: An assay of TRI 50c and its sodium and lysine salts before and after drying.
For sample analysis, 5 mg of dried and non-dried material was weighed in a 5 mL volumetric flask and dissolved in 1 mL acetonitrile and filled up with demineralised water to 5 mL.
The quantitative evaluation was performed using an HPLC-PDA method.

Another data set deals with thrombin time and APTT. The format is in vivo, beagle dogs. The following applies: dog. Here is the method: Plasma was prepared by centrifugation and frozen at minus 20°C pending analysis.
The nature of data set [2]: Maximum aqueous solubility (shaken in water at 37°C, filtered, UV spectrum). The format is physicochemical. The settings on record: read-out: Solubility when dissolved at 50mg/ml.
For data set [3] the following is noted: rat, in vivo, iv, 1 mg/kg.
Description: (§1) Rats, body weight circa 250-300g were used. The animals were fasted only on the day of use for the iv stage.
(§2) Just before administration, 5 volumes of this solution is mixed with 3 volumes of 5% kollidon 17 8F.
(§3) Both compounds were given at a dose of 1.0mg/kg iv.
(§4) The compounds were dosed in a PEG/ethanol/kollidon formulation which was prepared immediately before, as described immediately under the heading "Dose": Stock 15.0mg/ml. This was dosed at 1.33ml/kg (equivalent to 30mg/kg).
(§5) A pre dose sample was taken followed by: 0, 2, 5, 10, 20, 30, 40, 60 and 90 minutes post dose.
(§6) This was obtained by centrifugation (3000 RPM for 10 min) and stored at -20°C prior to analysis.
Another data set has as its system platelet rich thrombus. Put plainly: Rabbit extracorporeal shunt model. The format is in vivo, NZW rabbits. The following applies: for THROMBUS WEIGHT AFTER 20 minute run: n=5. An excerpt: The technique describes an animal model in which a platelet rich thrombus is produced. The activity of TRI 50b and heparin are compared.
The carotid artery and jugular vein of anaesthetised rabbits were used to create an extracorporeal circuit containing a suspended foreign surface (silk thread). Thrombus deposition is initiated by creation of high sheer stress turbulent arterial blood flow, platelet activation, followed by coagulation in the presence of thrombogenic surfaces. Histopathological studies have shown that the thrombus is platelet rich.
NZW rabbits (males 2.5-3.5 kg) were used. The animals were allowed food and water up to the induction of anaesthesia.
Animals were premedicated with […] (Hypnorm) 0.15 ml total by intramuscular injection. General anaesthesia was induced with methohexitone (10 mg/ml) to effect, followed by endotracheal intubation. Anaesthesia was maintained with isoflurane (1-2.0 %) carried in oxygen /nitrous oxide.
The animals were placed in dorsal recumbency and the ventral cervical region prepared for surgery. The left carotid artery and right jugular vein were exposed. The artery was cannulated with a large Portex® catheter (yellow gauge), cut to a suitable length. The vein was cannulated with a Silastic® catheter. The shunt comprised of a 5 cm length of 'auto analyser' line (purple /white gauge). Joins to the shunt on the arterial side were made with intermediate size Silastic® tubing. The shunt was filled with saline before exposure to the circulation. The right femoral artery was cannulated for the measurement of blood pressure.
The central section of the shunt contained a thread 3 centimetres in length. This consisted of 000 gauge Gutterman sewing silk so as to give four strands with a single knot at the end. (The knot section was outside the shunt).
Blood flow velocity was determined by use of 'Doppler' probes (Crystal Biotech). A silastic probe was positioned over the carotid artery at the point of insertion of the arterial catheter. Flow was recorded on a chart recorder using heat sensitive paper.

The test system of data set [4] is platelet procoagulant activity. Description: Inhibition of platelet procoagulant activity. It is filed as cell-based. The source says:
Platelet pro-coagulant activity may be observed as the increase, in rate of activation of prothrombin by factor Xa in the presence of factor Va upon the addition of platelets pretreated with thrombin, caused by thrombin alone, collagen alone or a mixture of thrombin and collagen. This property is due to an increase in anionic phospholipid on the surface of the platelet with concomitant release of microvesicle from the surface. This is an essential physiological reaction and people whose platelets have reduced ability to generate procoagulant activity (Scott syndrome) show an increased tendency for bleeding.
Washed platelets were treated with either 1.15nM thrombin, 23µg/ml collagen or a mixture of both at the same concentration at 37°C. TRI 50b was added either for 1 minute prior to the addition of activator or immediately after the incubation with activator. Platelet procoagulant activity was determined as described previously (Goodwin C A et al, Biochem J. 1995 8, 308: 15-21).

The test system of another data set is washed platelets. Description: Aggregation of washed platelets. It is filed as cell-based.
A short description of data set [5]: i.v. pharmacokinetics in rats. The settings on record: rat.
Description: as §1, §2, §3, §4, §5, §6
A short description of data set [6]: Hydrolysis under HPLC assay conditions. The format is physicochemical. The settings on record: acid conditions / sample preparation of an HPLC assay.
Where [7] appears, read: dry (desiccator over phosphorus pentoxide for 1 week), listed as TRI 50c Na salt, monosodium salt.
[8] abbreviates: non-dried, listed as TRI 50c Na salt, monosodium salt.
[9] abbreviates: dry (desiccator over phosphorus pentoxide for 1 week).

With `COCCC[C@H](NC(=O)[C@@H]1CCCN1C(=O)[C@@H](Cc1ccccc1)NC(=O)OCc1ccccc1)B(O)O` [magnesium salt of TRI 50c], the “activity in thrombin amidolytic assay” value at thrombin is given as “the same activity as TRI 50b”.
Regarding `COCCC[C@H](NC(=O)[C@@H]1CCCN1C(=O)[C@@H](Cc1ccccc1)NC(=O)OCc1ccccc1)B(O)O` [TRI 50c sodium salt, Cbz-(R)-Phe-(S)-Pro-(R)-Mpg-B(OH)2 monosodium salt], the Amount in [1] (setting [7]) amounted to 1024 µg/mL; in data set [1] (setting [8]) it was 1005.8 µg/mL. Moreover, the entries for the “Purity (% area)” value in data set [1] (setting [7]) and in data set [1] (setting [8]) were 98.81 % area and 98.61 % area, respectively. In addition, the thrombin time in the data set with thrombin time and APTT (1.0 mg/kg i.v., 2 minutes post dose, base line 14.3 seconds, listed as sodium salt, monosodium salt, 1 mg/kg) is 154.4 s; in the data set with thrombin time and APTT (1.0 mg/kg i.v., 2 minutes post dose, base line 14.3 seconds, monosodium salt, 1 mg/kg), 154 s; in the data set on thrombin time and APTT (1.0 mg/kg i.v., one hour post dose), 26 s. Also, the “elevation in the APTT” value with thrombin time and APTT (1.0 mg/kg i.v., post dose) is listed as 1.3 times. Moreover, in the data set with thrombin time and APTT (1.0 mg/kg i.v., post dose, base line 19 seconds), the APTT stood at 25 s. Besides, the “Thrombin clotting time elevation above base line” value in the data set on thrombin time and APTT (1.0 mg/kg i.v., two minutes following dosing) is 10.8 times. Also, in the data set with thrombin time and APTT (in vivo, iv, 1 mg/kg), the “tolerability / adverse events” value was “tolerated well with no adverse events”.
Consider `COCCC[C@H](NC(=O)[C@@H]1CCCN1C(=O)[C@@H](Cc1ccccc1)NC(=O)OCc1ccccc1)B(O)O` [TRI 50c Lys salt], for which the “Purity (% area)” value in [1] (setting [9]) was 90.17 % area; in data set [1] (non-dried) it was 92.25 % area. Moreover, the Amount in [1] (setting [9]) was 813.3 µg/mL; in data set [1] (non-dried) it was 809.8 µg/mL.
For the compound `COCCC[C@H](NC(=O)[C@@H]1CCCN1C(=O)[C@@H](Cc1ccccc1)NC(=O)OCc1ccccc1)B(O)O` [lithium salt], the solubility in data set [2] turned out to be 43 mg/mL.
Regarding `COCCC[C@H](NC(=O)[C@@H]1CCCN1C(=O)[C@@H](Cc1ccccc1)NC(=O)OCc1ccccc1)B(O)O` [TRI 50c, Cbz-(R)-Phe-(S)-Pro-(R)-boroMpg-OH], in data set [1] (setting [9]), the “Purity (% area)” value is reported as 82.00 % area and the Amount is 1000.0 µg/mL. Besides, in data set [3], the Area under curve is listed as 1.48, the “Max Plasma Concentration (observed)” value is on record as 2.35 and the “Volume Distribution” value worked out at 0.59 L/kg.
Broadly, the Vd is the apparent volume that relates the amount in the body to the concentration in plasma or blood. Read a high Vd as wide distribution into tissue. `COCCC[C@H](NC(=O)[C@@H]1CCCN1C(=O)[C@@H](Cc1ccccc1)NC(=O)OCc1ccccc1)B1OC(C)(C)C(C)(C)O1` [TRI 50b, Cbz-(R)-Phe-Pro-BoroMpg-OPinacol]: the “THROMBUS WEIGHT AFTER 20 minute run” value with platelet rich thrombus (3.0mg/kg iv) is on record as 15.3 ±2.2 mg(n=5); in the data set with platelet rich thrombus (10mg/kg iv), 9.78 ±1.9 mg(n=5). Also, in the data set on platelet rich thrombus (3mg/kg to 10mg/kg iv), the bleeding result is reported as “without bleeding”. Besides, the IC50 in [4] (agonist Collagen (23µg/ml), TRI 50b added 1 minute prior to activator, read-out: I C50 plus pre-incubation) was found to be 0.2 µM; in [4] (agonist Collagen (23µg/ml), TRI 50b added after incubation with activator, read-out: I C50 without incubation) it was 0.3 µM; in data set [4] (agonist Thrombin/Collagen, TRI 50b added 1 minute prior to activator, read-out: I C50 plus pre-incubation) it was 0.003 µM; in [4] (agonist Thrombin/Collagen, TRI 50b added after incubation with activator, read-out: I C50 without incubation) it was 0.08 µM. Also, the “effect on ADP, collagen or epinephrine induced aggregation” value in the data set with washed platelets is listed as “does not have an effect”. In data set [5] (1.0mg/kg iv, n=3), the Area under curve is reported as 1.68. Moreover, the “Max Plasma Concentration (observed)” value in [5] (1.0mg/kg iv, n=3) amounted to 2.24. The same compound yielded a Vd in data set [5] (plasma, iv, 1 mg/kg) of 0.5 L/kg. The “hydrolysis to the acid form (TRI 50c)” value in data set [6] is reported as “short half life”.
